Experiments:
[1] = test system: intracellular and extracellular M. leprae; details: cited from earlier work
[2] = In vitro skin penetration study (Franz diffusion cells, radiolabelled compositions); details: barrier-impaired skin; versus fusidic acid in a monoglyceride composition, or versus composition without stabilising agent

Row | degree of retention in dermis and epidermis, comparison [2] | Compound | potency against M. leprae [1]
1 | – | CC(=O)O[C@H]1C[C@@]2(C)[C@@H](C[C@@H](O)[C@H]3[C@@]4(C)CC[C@@H](O)[C@@H](C)[C@@H]4CC[C@@]32C)/C1=C(\CCC=C(C)C)C(=O)O [fusidic acid, Fusidic acid] | highly potent
2 | significantly higher | CC(=O)O[C@H]1C[C@@]2(C)[C@@H](C[C@@H](O)[C@H]3[C@@]4(C)CC[C@@H](O)[C@@H](C)[C@@H]4CC[C@@]32C)/C1=C(\CCC(Br)=C(C)C)C(=O)O [11-^3H 24-bromo-fusidic acid, 24-Bromo-fusidic acid] | –

— patent US20090054389A1, “Topical Composition Comprising an Antibacterial Substance” (Leo Pharma A/S, priority 2006, published 2009)
